Test results from patent US20100240581A1, “SELECTIVE PROTEASOME INHIBITORS FOR TREATING DIABETES” (The Trustees of Columbia University in the City of New York, priority 2006, published 2010).
Entries after “also recorded” stand apart in the source; their conditions may differ.

Assays:
male C57BL/6J ob/ob mice [1] = test: Blood glucose in ob/ob mice on dietary curcumin; type: in vivo, mouse; conditions: dietary curcumin (3%), p<0.05
male C57BL/Ks db/db mice [2] = test: Blood glucose in db/db mice (dietary curcumin or single i.p. injection); type: in vivo, mouse; conditions: for blood glucose after a single intraperitoneal injection: epoxomicin 0.1 mg/kg or celastrol 3 mg/kg i.p., male db/db mice, noted approximately 10 hours after injection; for duration of blood glucose lowering after injection: single i.p. injection
From the text: (§1) This translated into a daily consumption by the mice of roughly 1.0 to 1.5 g/kg/day.
Male C57BU6J mice gradually develop obesity and moderate diabetes when placed on high-fat diets, a process quite analogous to that in humans. […] However, the loss of leptin effect on the C57BL/Ks background is not compensated for by β-cell hyperplasia and hyperinsulinemia. At a very young age these mice become severely hyperglycemic, hyperphagic, and polydipsic. As they mature, they start to lose weight, develop nephropathy, and ultimately die around age 40 weeks from diabetic complications.
(§2) This effect was noted to last for at least 48 hours post-injection. Mice receiving vehicle in the celastrol and epoxomicin experiments were food entrained to the treatment group to avoid any acute effects on glucose levels from differences in food intake.

[3] = test system: DIO C57BL/6J, C57BL/6J ob/ob and C57BL/Ks db/db mice; test: Random fed glucose and HbA1c in the three mouse models of diabetes; type: in vivo
male C57BL/6J DIO mice [4] = test: Glucose tolerance test in DIO mice; type: in vivo, mouse; conditions: dietary curcumin
Experimental: as §1, §2

male C57BL/6J ob/ob mice [5] = test: Insulin tolerance test in ob/ob mice; type: in vivo, mouse; conditions: dietary curcumin (3%)
Experimental: as §1, §2

male C57BL/6J ob/ob mice [6] = test: Body composition (Bruker NMR), food intake and liver in ob/ob mice; type: in vivo, mouse
male C57BL/6J DIO mice [7] = test: Body composition, food intake and liver in DIO mice; type: in vivo, mouse
male C57BL/Ks db/db mice [8] = test: Body composition (Bruker NMR), food intake and liver in db/db mice; type: in vivo, mouse; conditions: dietary curcumin (3%)
[9] = test system: TNF-α, Socs-3, Ccl2 (MCP-1 gene) and Ccr2 (MCP-1 receptor gene); test: Quantitative real-time PCR of hepatic inflammatory genes in ob/ob mice; type: in vivo, mouse; conditions: dietary curcumin, 10 weeks; male ob/ob mice
From the text: (§3) These included TNF-α, Socs-3, Ccl2 (MCP-1 gene) and Ccr2 (MCP-1 receptor gene).

NFkB p65 = test: p65 activity assay (TransAM NFkB p65 Kit) in liver nuclear extracts of ob/ob mice; type: in vivo, mouse; conditions: dietary curcumin, 10 weeks; liver nuclear extract of ob/ob mice
From the text: as §3

[10] = test system: adiponectin (Acdc), F480 (Emr1); test: Quantitative real-time PCR of white adipose tissue of ob/ob mice; type: in vivo, mouse; conditions: dietary curcumin, 10 weeks; male ob/ob mice
From the text: (§4) Given that the adipose tissue of obese subjects is chronically inflamed and secretes diabetogenic adipokines, we investigated the possibility that proteasome inhibition improves diabetes by decreasing adipose inflammation in obese diabetic mice.

[11] = Serum adiponectin in ob/ob mice; type: in vivo, mouse; conditions: curcumin-treated ob/ob mice (not shown)
From the text: as §4

[12] = test system: macrophages in adipose tissue of ob/ob mice; test: Adipose macrophage immunohistochemistry (F480 antibody) in ob/ob mice; type: in vivo, mouse; conditions: dietary curcumin; male C57BL/6J ob/ob mice
[13] = Serum insulin in db/db mice; type: in vivo, mouse; conditions: for serum insulin: single i.p. dose, celastrol 3 mg/kg or epoxomicin 0.1 mg/kg, 24 hours post injection, male C57BL/Ks db/db mice
From the text: (§5) As FIGS. 19 and 20 A-C reveal, untreated ob/ob mice develop pancreatic β-cell hyperplasia and hyperinsulinemia, a phenomenon that ultimately allows them to recoup normoglycemia. The pancreatic islets in untreated C57BL/Ks db/db mice however, degenerate (FIG. 20 D-F).

[14] = test system: pancreatic islets of C57BL/Ks db/db mice; test: Immunohistology of pancreatic islets in db/db mice; type: in vivo, mouse; conditions: curcumin-treated C57BL/Ks db/db mice
From the text: as §5

[15] = test system: diabetic streptozotocin-treated rat; conditions: oral curcumin therapy; preclinical studies, mostly streptozotocin-treated rat; cited from earlier work
[16] = daily doses about 0.5 to about 3.0 mg/kg/d (i.p.); cited from earlier work
[17] = test system: Glucotoxic HIT-T15 β-cells; conditions: cited from earlier work
male C57BL/Ks db/db mice [18] = test: Insulin tolerance test in db/db mice; type: in vivo, mouse; conditions: celastrol i.p., 24 hours after a single injection
Experimental: as §2

[19] = test system: adiponectin (Acdc), Ccl2 (MCP-1); test: Gene expression in white adipose tissue of db/db mice after celastrol; type: in vivo, mouse; conditions: celastrol i.p. once daily for 3 days; male db/db mice
rat β-cell line INS-1 = test: INS-1 viable cell number (CellTiter-Blue Cell Viability Assay); type: cell-based; conditions: INS-1 cells, 24 hours
From the text: To follow-up on the potential ability of proteasome inhibition to improve β-cell function, we performed experiments using the rat β-cell line Ins-1.

[20] = target: chymotrypsin-like activity of a purified 20S proteasome (Homo sapiens, UniProt P28074); conditions: reported (ref. 83); cited from earlier work
[21] = target: T1, human prostate cancer cellular 26S proteasome (Homo sapiens, UniProt P28074); conditions: reported (ref. 83); cited from earlier work
T1 construct: human prostate cancer cellular 26S proteasome

[22] = test system: human prostrate cancer growth in nude mice; conditions: tumor-bearing nude mice; 1-3 mg/kg/d (i.p.); cited from earlier work
[23] = curcumin-fed ob/ob mice vs controls (data not shown)
[24] = dietary curcumin (3%), ob/ob mice

In the case of `COc1cc(/C=C/C(=O)CC(=O)/C=C/c2ccc(O)c(OC)c2)ccc1O` [curcumin], the “effect on hyperglycemia (blood glucose)” value (male C57BL/6J ob/ob mice [1]) is reported as “significant protective effect against hyperglycemia”, the “effect on hyperglycemia (blood glucose)” value (male C57BL/Ks db/db mice [2]; dietary curcumin (3%), male C57BL/Ks db/db mice, p<0.05) is reported as “significant protection against hyperglycemia” and the HbA1c levels ([3]; 3% dietary curcumin, all mouse models of diabetes tested) is reported as “significant decreases; also recorded: decreases HbA1c percentage”. The random fed glucose ([3]; 3% dietary curcumin, all three diabetic mice categories, as early as 2-3 weeks) was “significant decreases”, the “HbA1c percentage in non-diabetic mice” value ([3]; dietary curcumin (3%), non-diabetic mice) was “not affected” and the “AUC of glucose tolerance test” value (male C57BL/6J DIO mice [4]) was “improved glucose tolerance; also recorded: significantly lowers AUC of glucose”. The “AUC of insulin tolerance test” value (male C57BL/6J ob/ob mice [5]) was “decreased area under the curve (AUC); also recorded: significantly lowers AUC of insulin tolerance test”, the “degree of liver steatosis” value (male C57BL/6J ob/ob mice [6]; [23]) was “significantly lower” and the liver weight (male C57BL/6J ob/ob mice [6]; [23]) was “significantly lower”. For the same compound, the “adipose mass / body fat” value (male C57BL/6J ob/ob mice [6]; [24]) was “significantly less body fat; also recorded: significantly decreases”, the body weight (male C57BL/6J ob/ob mice [6]; [24]) was “weighed slightly but significantly less; also recorded: significantly decreases body weight” and the “lean body mass (NMR)” value (male C57BL/6J ob/ob mice [6]; [24]) was “significantly more lean mass; also recorded: significantly increases lean body mass”. The body weight (male C57BL/6J DIO mice [7]; 3% curcumin in food, DIO mice) was “weighed slightly but significantly less”, the liver weight (male C57BL/6J DIO mice [7]; curcumin treatment, DIO mice) was “significantly lower; also recorded: significantly decreased” and the “degree of liver steatosis” value (male C57BL/6J DIO mice [7]; curcumin-fed DIO mice vs controls (data not shown)) was “significantly lower”. For the same compound, the “body fat percentage / body fat” value (male C57BL/6J DIO mice [7]; one month of curcumin treatment, DIO mice) was “significantly less body fat; also recorded: significantly decreased body fat percentage”, the body weight (male C57BL/Ks db/db mice [8]) was “weighed more; also recorded: significantly increased” and the “lean muscle mass (NMR)” value (male C57BL/Ks db/db mice [8]) was “significantly more lean mass; also recorded: significantly increased lean muscle mass”. The “hepatic expression of pro-inflammatory genes (TNF-α, Socs-3, Ccl2, Ccr2)” value [9] was “significantly downregulated; also recorded: significantly lowers hepatic expression of pro-inflammatory genes”, the “hepatic NF-κB activity” value (NFkB p65) was “significantly less NFkB activity; also recorded: significantly decreases hepatic NF-κB activity” and the “F480 (Emr1) expression in white adipose tissue” value [10] was “significantly decreased macrophage-specific Emr1 (F480) expression; also recorded: decreases F480 (Emr1) expression”. The “adiponectin (Acdc) expression in white adipose tissue” value [10] was “dramatically increased; also recorded: significantly increases expression of adiponectin (Acdc)”, the serum adiponectin levels [11] was “significantly higher” and the “adipose macrophage infiltration (F480 staining)” value [12] was “dramatic reduction in the number of macrophages; also recorded: significant reduction of adipose macrophage infiltration”. For the same compound, the serum insulin levels ([13]; dietary curcumin, db/db mice) was “exhibit hyperinsulinemia; also recorded: significantly increased serum insulin levels”, the “proliferating β-cells (nuclear Ks67 immunoreactivity)” value [14] was “contain some proliferating β-cells” and the “pancreatic islet morphology (hyperplasia)” value ([14]; age 20 weeks) was “islets actually become hyperplastic; also recorded: hyperplasia of the pancreatic islets”. For the same compound, the “diabetes-related hyperglycemia or end-organ damage” value [15] was “prevents, delays, or ameliorates diabetes-related hyperglycemia or end-organ damage”.
With `CC[C@H](C)[C@H](NC(=O)[C@H]([C@@H](C)CC)N(C)C(C)=O)C(=O)N[C@H](C(=O)N[C@@H](CC(C)C)C(=O)[C@@]1(C)CO1)[C@@H](C)O` [epoxomicin] the “blood glucose after a single intraperitoneal injection” value (male C57BL/Ks db/db mice [2]) was “correction of hyperglycemia; also recorded: significantly lowers blood glucose”, the “duration of blood glucose lowering after injection” value (male C57BL/Ks db/db mice [2]; male C57BL/Ks db/db mice) was roughly 2 days and the serum insulin [13] was “significant increases in serum insulin; also recorded: significantly increase serum insulin”. The antiinflammatory activity [16] was “exhibits antiinflammatory activity”.
In the case of `CC(=O)N[C@@H](CSC(=O)[C@]1([C@@H](O)C(C)C)NC(=O)[C@H](C)[C@@H]1O)C(=O)O` [lactacystin], the MafA protein [17] is listed as “caused an accumulation of MafA protein”.
With celastrol the “blood glucose after a single intraperitoneal injection” value (male C57BL/Ks db/db mice [2]) was “correction of hyperglycemia; also recorded: significantly lowers blood glucose”, the “duration of blood glucose lowering after injection” value (male C57BL/Ks db/db mice [2]; male C57BL/Ks db/db mice) was roughly 2 days and the “AUC of ITT” value (male C57BL/Ks db/db mice [18]) was “improved insulin tolerance; also recorded: significantly lower AUC of ITT”. For the same compound, the “Ccl2 (MCP-1) expression in white adipose tissue” value [19] was “significantly decreased adipose expression of Ccl-2; also recorded: decreasing expression of Ccl2 (MCP-1)”, the “adiponectin (Acdc) expression in white adipose tissue” value [19] was “significantly increased expression of adiponectin; also recorded: significantly increases expression of adiponectin (Acdc)” and the serum insulin [13] was “significant increases in serum insulin; also recorded: significantly increase serum insulin”. For the same compound, the “cell viability at highest concentrations” value (rat β-cell line INS-1) was “proved cytotoxic; also recorded: negative effects on cell viability”, the IC50 [20] was 2500 nM and the “concentration inhibiting human prostate cancer cellular 26S proteasome” value [21] was 1-5 μM/L. For the same compound, the tumor growth [22] was “inhibition of tumor growth”.
